Laboratory results published in PubChem BioAssay (NCI).
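The compound was tested at five concentrations on cells cultured in 96-well plates, with a 48-hour exposure period. The concentration for 50% growth inhibition is given as GI50. At the TGI there is no net growth.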

Columns and labels:
Assay in all cases: NCI-60 cell line screen, 48 h
HCT-116 colon = tested on: HCT-116 colon
MOLT-4 leukemia = tested on: MOLT-4 leukemia
SF-295 CNS = tested on: SF-295 CNS
EKVX NSCLC = tested on: EKVX NSCLC
UACC-257 melanoma = tested on: UACC-257 melanoma
SK-OV-3 ovarian = tested on: SK-OV-3 ovarian
SN12C renal = tested on: SN12C renal
NCI-H226 lung = tested on: NCI-H226 lung
OVCAR-3 ovarian = tested on: OVCAR-3 ovarian
SNB-19 CNS = tested on: SNB-19 CNS
LOX IMVI melanoma = tested on: LOX IMVI melanoma
NCI-H522 lung = tested on: NCI-H522 lung
HT29 colon = tested on: HT29 colon
TK-10 renal = tested on: TK-10 renal
UO-31 renal = tested on: UO-31 renal
MALME-3M melanoma = tested on: MALME-3M melanoma
UACC-62 melanoma = tested on: UACC-62 melanoma
HOP-92 NSCLC = tested on: HOP-92 NSCLC
CAKI-1 renal = tested on: CAKI-1 renal
A549 NSCLC = tested on: A549 NSCLC
BT-549 breast = tested on: BT-549 breast
MDA-MB-231 breast = tested on: MDA-MB-231 breast
SK-MEL-28 melanoma = tested on: SK-MEL-28 melanoma
786-0 renal = tested on: 786-0 renal
HOP-62 NSCLC = tested on: HOP-62 NSCLC
HS 578T breast = tested on: HS 578T breast
U251 CNS = tested on: U251 CNS
NCI/ADR-RES ovarian = tested on: NCI/ADR-RES ovarian
COLO 205 colon = tested on: COLO 205 colon
OVCAR-5 ovarian = tested on: OVCAR-5 ovarian
OVCAR-4 ovarian = tested on: OVCAR-4 ovarian
RPMI-8226 leukemia = tested on: RPMI-8226 leukemia
HCC-2998 colon = tested on: HCC-2998 colon
T-47D breast = tested on: T-47D breast
SW-620 colon = tested on: SW-620 colon
SF-268 CNS = tested on: SF-268 CNS
PC-3 prostate = tested on: PC-3 prostate
SF-539 CNS = tested on: SF-539 CNS
NCI-H460 lung = tested on: NCI-H460 lung
HL-60(TB) leukemia = tested on: HL-60(TB) leukemia
KM12 colon = tested on: KM12 colon
SR leukemia = tested on: SR leukemia
SNB-75 CNS = tested on: SNB-75 CNS
MDA-MB-435 = tested on: MDA-MB-435
K-562 leukemia = tested on: K-562 leukemia
OVCAR-8 ovarian = tested on: OVCAR-8 ovarian
ACHN renal = tested on: ACHN renal
MCF7 breast = tested on: MCF7 breast
A498 renal = tested on: A498 renal
SK-MEL-5 melanoma = tested on: SK-MEL-5 melanoma
CCRF-CEM leukemia = tested on: CCRF-CEM leukemia
M14 melanoma = tested on: M14 melanoma
SK-MEL-2 melanoma = tested on: SK-MEL-2 melanoma
HCT-15 colon = tested on: HCT-15 colon
DU-145 prostate = tested on: DU-145 prostate
IGROV1 ovarian = tested on: IGROV1 ovarian
RXF 393 renal = tested on: RXF 393 renal

Q: What does the source list for O=C(CSc1nc2sc3c(c2c(=O)n1-c1ccc(Cl)cc1)CCCC3)NNC(=O)Nc1ccc(Cl)c(C(F)(F)F)c1?
A: GI50 (HCT-116 colon): 1.87 µM; TGI (HCT-116 colon): 3.99 µM; GI50 (MOLT-4 leukemia): 2.74 µM; TGI (MOLT-4 leukemia): 14.1 µM; GI50 (SF-295 CNS): 3.11 µM; TGI (SF-295 CNS): 8.87 µM; GI50 (EKVX NSCLC): 2.68 µM; TGI (EKVX NSCLC): 8.85 µM; GI50 (UACC-257 melanoma): 2.94 µM; TGI (UACC-257 melanoma): 12.6 µM; GI50 (SK-OV-3 ovarian): 4.66 µM; TGI (SK-OV-3 ovarian): 20.4 µM; GI50 (SN12C renal): 3.3 µM; TGI (SN12C renal): 12.9 µM; GI50 (NCI-H226 lung): 2.89 µM; TGI (NCI-H226 lung): 11.3 µM; GI50 (OVCAR-3 ovarian): 2.95 µM; TGI (OVCAR-3 ovarian): 10.6 µM; GI50 (SNB-19 CNS): 4.08 µM; TGI (SNB-19 CNS): > 100 µM; GI50 (LOX IMVI melanoma): 1.76 µM; TGI (LOX IMVI melanoma): 3.49 µM; GI50 (NCI-H522 lung): 1.96 µM; TGI (NCI-H522 lung): 6.05 µM; GI50 (HT29 colon): 3.05 µM; TGI (HT29 colon): 9.54 µM; GI50 (TK-10 renal): 4.3 µM; TGI (TK-10 renal): 23.6 µM; GI50 (UO-31 renal): 2.85 µM; TGI (UO-31 renal): 29.5 µM; GI50 (MALME-3M melanoma): 2.45 µM; TGI (MALME-3M melanoma): 6.82 µM; GI50 (UACC-62 melanoma): 2.5 µM; TGI (UACC-62 melanoma): 10 µM; GI50 (HOP-92 NSCLC): 1.44 µM; TGI (HOP-92 NSCLC): 3.97 µM; GI50 (CAKI-1 renal): 1.99 µM; TGI (CAKI-1 renal): 6.17 µM; GI50 (A549 NSCLC): 3.3 µM; TGI (A549 NSCLC): 15.7 µM; GI50 (BT-549 breast): 3.5 µM; TGI (BT-549 breast): 14.4 µM; GI50 (MDA-MB-231 breast): 4.45 µM; TGI (MDA-MB-231 breast): 20.5 µM; GI50 (SK-MEL-28 melanoma): 4.48 µM; TGI (SK-MEL-28 melanoma): 17.3 µM; GI50 (786-0 renal): 4.23 µM; TGI (786-0 renal): 16 µM; GI50 (HOP-62 NSCLC): 4.3 µM; TGI (HOP-62 NSCLC): 19.1 µM; GI50 (HS 578T breast): 6.93 µM; TGI (HS 578T breast): 73.1 µM; GI50 (U251 CNS): 2.93 µM; TGI (U251 CNS): 10.9 µM; GI50 (NCI/ADR-RES ovarian): 6.57 µM; TGI (NCI/ADR-RES ovarian): 97.3 µM; GI50 (COLO 205 colon): 2.05 µM; TGI (COLO 205 colon): 4.7 µM; GI50 (OVCAR-5 ovarian): 4.4 µM; TGI (OVCAR-5 ovarian): 19.7 µM; GI50 (OVCAR-4 ovarian): 1.92 µM; TGI (OVCAR-4 ovarian): 4.31 µM; GI50 (RPMI-8226 leukemia): 2.99 µM; TGI (RPMI-8226 leukemia): 17.9 µM; GI50 (HCC-2998 colon): 3.04 µM; TGI (HCC-2998 colon): 9.42 µM; GI50 (T-47D breast): 1.83 µM; TGI (T-47D breast): 4.2 µM; GI50 (SW-620 colon): 3.16 µM; TGI (SW-620 colon): 13.2 µM; GI50 (SF-268 CNS): 6.21 µM; TGI (SF-268 CNS): > 100 µM; GI50 (PC-3 prostate): 2.05 µM; TGI (PC-3 prostate): 6.62 µM; GI50 (SF-539 CNS): 6.53 µM; TGI (SF-539 CNS): 21.2 µM; GI50 (NCI-H460 lung): 3.16 µM; TGI (NCI-H460 lung): 10.9 µM; GI50 (HL-60(TB) leukemia): 3.18 µM; TGI (HL-60(TB) leukemia): 17.7 µM; GI50 (KM12 colon): 3.75 µM; TGI (KM12 colon): > 100 µM; GI50 (SR leukemia): 3.3 µM; TGI (SR leukemia): 46.1 µM; GI50 (SNB-75 CNS): 2.01 µM; TGI (SNB-75 CNS): 7.88 µM; GI50 (MDA-MB-435): 3.67 µM; TGI (MDA-MB-435): 14.6 µM; GI50 (K-562 leukemia): 2.51 µM; TGI (K-562 leukemia): > 100 µM; GI50 (OVCAR-8 ovarian): 3.12 µM; TGI (OVCAR-8 ovarian): 11.9 µM; GI50 (ACHN renal): 3.56 µM; TGI (ACHN renal): 16.9 µM; GI50 (MCF7 breast): 2.77 µM; TGI (MCF7 breast): 17.6 µM; GI50 (A498 renal): 2.58 µM; TGI (A498 renal): 8.61 µM; GI50 (SK-MEL-5 melanoma): 4.06 µM; TGI (SK-MEL-5 melanoma): 14.7 µM; GI50 (CCRF-CEM leukemia): 3.65 µM; TGI (CCRF-CEM leukemia): > 100 µM; GI50 (M14 melanoma): 3.42 µM; TGI (M14 melanoma): 14.1 µM; GI50 (SK-MEL-2 melanoma): 2.46 µM; TGI (SK-MEL-2 melanoma): 7.24 µM; GI50 (HCT-15 colon): 3.59 µM; TGI (HCT-15 colon): 18.6 µM; GI50 (DU-145 prostate): 3.86 µM; TGI (DU-145 prostate): > 100 µM; GI50 (IGROV1 ovarian): 4.71 µM; TGI (IGROV1 ovarian): 91.7 µM; GI50 (RXF 393 renal): 2.58 µM; TGI (RXF 393 renal): 9.32 µM
